Data as given in paper PMC8161026, “Synthesis and Anticancer Activity Evaluation of 5-[2-Chloro-3-(4-nitrophenyl)-2-propenylidene]-4-thiazolidinones” (Molecules, 2021).
Where two headings read alike, the source gives them in different places.

Assays:
60 tumor cell lines = test: NCI60 full panel MG_MID; settings: for GI50 / CC50: Homo sapiens; for CC50: read-out: 60 lines MG_MID, LC50; for 60 lines MG_MID, TGI: mean over all cell lines
Protocol: At the first stage of biological activity study, the antitumor activity screening of the selected compounds 2b, 2c, 2f, 2h, and 2j was performed according to the NCI DTP (USA) standard protocol at the concentrations ranging from 10^−4 to 10^−8 M toward 60 tumor cell lines. The percentage of growth was evaluated spectrophotometrically versus controls not treated with test agents after 48 h exposure and using SRB protein assay to estimate cell viability or growth. Dose–response parameters were calculated for each cell line: GI50—molar concentration of the compound that inhibits 50% net cell growth; TGI—molar concentration of the compound leading to the total inhibition; and LC50—molar concentration of the compound leading to 50% net cell death. Furthermore, mean graph midpoints (MG_MID) were calculated for each of the parameters, giving an average activity parameter over all cell lines for the tested compound. For the MG_MID calculation, insensitive cell lines were included with the highest concentration tested.
Primary anticancer assay was performed on a panel of approximately sixty human tumor cell lines derived from nine neoplastic diseases, in accordance with the protocol of the Drug Evaluation Branch, National Cancer Institute, Bethesda. Tested compounds were added to the culture at a single concentration (10^−5 M) and the cultures were incubated for 48 h. End point determinations were made with a protein binding dye, sulforhodamine B (SRB). […] The percentage growth was evaluated spectrophotometrically versus controls not treated with test agents.
Dose–response parameters (GI50, TGI, LC50) were calculated for each compound. […] The drug concentration resulting in total growth inhibition (TGI) was calculated from Ti = Tz. The LC50 (concentration of drug resulting in a 50% reduction in the measured protein at the end of the drug treatment as compared to that at the beginning) indicating a net loss of cells following treatment was calculated from [(Ti − Tz)/Tz] × 100 = −50 (2). Values were calculated for each of these parameters if the level of activity was reached; however, if the effect was not reached or was excessive, the value for that parameter was expressed as more or less than the maximum or minimum concentration tested.

RPMI-8226 = test: cells; settings: Homo sapiens, RPMI-8226, 48 h; for CC50: read-out: LC50
EKVX = EKVX (Non-Small Cell Lung Cancer), 48 h, SRB
TK-10 = test: NCI DTP 60 cell line screen, SRB; settings: for GI50 / CC50: Homo sapiens, TK-10, 48 h; for CC50: read-out: LC50; for TGI: TK-10 (Renal Cancer), 48 h, SRB
DU-145 = test: cells; settings: Homo sapiens, DU-145, 48 h; for CC50: read-out: LC50
SF-295 = test: NCI DTP 60 cell line screen, SRB; settings: for GI50 / CC50: Homo sapiens, SF-295, 48 h; for CC50: read-out: LC50; for TGI: SF-295 (CNS Cancer), 48 h, SRB
K-562 = test: cells; settings: Homo sapiens, K562, 48 h; for CC50: read-out: LC50
HCT-116 = HCT-116 (Colon Cancer), 48 h, SRB
UO-31 = test: NCI DTP 60 cell line screen, SRB; settings: for GI50 / CC50: Homo sapiens, UO-31, 48 h; for CC50: read-out: LC50; for TGI: UO-31 (Renal Cancer), 48 h, SRB
ACHN = test: NCI DTP 60 cell line screen, SRB; settings: 48 h; for TGI: ACHN (Renal Cancer), SRB; for GI50 / CC50: Homo sapiens, ACHN; for CC50: read-out: LC50
PC-3 = PC-3 (Prostate Cancer), 48 h, SRB
786-0 [1] = test: cells; settings: Homo sapiens, 786-0, 48 h; for CC50: read-out: LC50
NCI-H522 = test: NCI DTP 60 cell line screen, SRB
T-47D = T-47D (Breast Cancer), 48 h, SRB
786-0 [2] = settings: 786-0 (Renal Cancer), 48 h, SRB
SNB-75 = test: cells; settings: Homo sapiens, SNB-75, 48 h; for CC50: read-out: LC50
Colo 205 = test: NCI DTP 60 cell line screen, SRB; settings: for TGI: Colo 205 (Colon Cancer), 48 h, SRB; for GI50 / CC50: Homo sapiens, COLO 205, 48 h; for CC50: read-out: LC50
HOP-92 = test: NCI DTP 60 cell line screen, SRB; settings: for TGI: HOP-92 (Non-Small Cell Lung Cancer), 48 h, SRB; for GI50 / CC50: Homo sapiens, HOP-92, 48 h; for CC50: read-out: LC50
SF-539 = test: NCI DTP 60 cell line screen, SRB; settings: for GI50 / CC50: Homo sapiens, SF-539, 48 h; for CC50: read-out: LC50; for TGI: SF-539 (CNS Cancer), 48 h, SRB
[3] = test system: MDA-MB-231 (breast cancer); test: MTT cell viability assay; assay type: cell-based; settings: Homo sapiens; MDA-MB-231, MTT, 24 h
Protocol: In the second stage of the research, Ciminalum-thiazolidinone hybrids were investigated for antitumor activity on the lines of gastric cancer (AGS), human colon cancer (DLD-1), and breast cancers (MCF-7 and MDA-MB-231). The study was performed in the MTT assay according to the method described previously. The studied cancer line was sensitive to the action of the studied compounds that inhibited its growth in micromolar ranges of GI50. The hit compounds that inhibited the growth of all four cancer lines with the lowest GI50 values were [5-[2-chloro-3-(4-nitrophenyl)prop-2-enylidene]-rhodanines 2c, 2d, 2h, and 2i (Table 4).

MDA-MB-435 = test: NCI DTP 60 cell line screen, SRB
[4] = read-out: 60 lines MG_MID, GI50

SMILES: O=C(O)C(Cc1ccccc1)N1C(=O)/C(=C/C(Cl)=C/c2ccc([N+](=O)[O-])cc2)SC1=S (centres unmarked) [Compound 2j, 2-{5-[(Z,2Z)-2-Chloro-3-(4-nitrophenyl)-2-propenylidene]-4-oxo-2-thioxothiazolidin-3-yl}-3-phenylpropanoic acid]
- GI50 (60 tumor cell lines; [4]): 4.09 µM
- CC50 (60 tumor cell lines): 73.9 µM
- 60 lines MG_MID, TGI (60 tumor cell lines): 40.6 µM
- GI50 (RPMI-8226): 3.22 µM
- CC50 (RPMI-8226): > 100 µM
- TGI (EKVX): 7.29 µM
- GI50 (TK-10): 2.43 µM
- CC50 (TK-10): > 100 µM
- TGI (TK-10): > 100 µM
- GI50 (DU-145): 2.06 µM
- CC50 (DU-145): 11.7 µM
- GI50 (SF-295): 2.59 µM
- CC50 (SF-295): > 100 µM
- TGI (SF-295): 7.85 µM
- GI50 (K-562): 3.01 µM
- CC50 (K-562): > 100 µM
- TGI (HCT-116): 5.47 µM
- GI50 (UO-31): 1.59 µM
- CC50 (UO-31): 6.05 µM
- TGI (UO-31): 3.10 µM
- TGI (ACHN): 3.30 µM
- GI50 (ACHN): 1.8 µM
- CC50 (ACHN): 6.04 µM
- TGI (PC-3): 7.98 µM
- GI50 (786-0 [1]): 2.1 µM
- CC50 (786-0 [1]): > 100 µM
- GI50 (NCI-H522; Homo sapiens, NCI-H522, 48 h): 1.72 µM
- CC50 (NCI-H522; Homo sapiens, NCI-H522, 48 h, read-out: LC50): 29.5 µM
- TGI (NCI-H522; NCI-H522 (Non-Small Cell Lung Cancer), 48 h, SRB): 4.47 µM
- TGI (T-47D): 3.71 µM
- TGI (786-0 [2]): 5.01 µM
- GI50 (SNB-75): 1.96 µM
- CC50 (SNB-75): > 100 µM
- TGI (Colo 205): > 100 µM
- GI50 (Colo 205): 2.45 µM
- CC50 (Colo 205): > 100 µM
- TGI (HOP-92): 5.71 µM
- GI50 (HOP-92): 2.36 µM
- CC50 (HOP-92): > 100 µM
- GI50 (SF-539): 2.74 µM
- CC50 (SF-539): > 100 µM
- TGI (SF-539): > 100 µM

SMILES: O=C(O)CCN1C(=O)/C(=C/C(Cl)=C/c2ccc([N+](=O)[O-])cc2)SC1=S [Compound 2h, 3-{5-[(Z,2Z)-2-Chloro-3-(4-nitrophenyl)-2-propenylidene]-4-oxo-2-thioxothiazolidin-3-yl}propanoic acid]
- GI50 (60 tumor cell lines; [4]): 1.57 µM
- CC50 (60 tumor cell lines): 65 µM
- GI50 (60 tumor cell lines; read-out: GI50 concentration range): 0.01 to 0.02 µM
- 60 lines MG_MID, TGI (60 tumor cell lines): 13.3 µM
- GI50 (RPMI-8226): 0.138 µM
- CC50 (RPMI-8226): > 100 µM
- TGI (EKVX): 4.01 µM
- GI50 (TK-10): 2.33 µM
- CC50 (TK-10): 92 µM
- TGI (TK-10): 16.9 µM
- GI50 [3]: 1.63 µM
- GI50 (DU-145): 0.421 µM
- CC50 (DU-145): 52.3 µM
- GI50 (SF-295): 3.36 µM
- CC50 (SF-295): > 100 µM
- TGI (SF-295): 21.6 µM
- GI50 (K-562): 0.212 µM
- CC50 (K-562): > 100 µM
- TGI (HCT-116): 1.19 µM
- GI50 (UO-31): 0.812 µM
- CC50 (UO-31): 6.31 µM
- TGI (UO-31): 2.43 µM
- TGI (ACHN): 2.42 µM
- GI50 (ACHN): 1.02 µM
- CC50 (ACHN): 5.76 µM
- TGI (PC-3): 13.7 µM
- GI50 (786-0 [1]): 1.13 µM
- CC50 (786-0 [1]): 5.42 µM
- TGI (T-47D): > 100 µM
- TGI (786-0 [2]): 2.47 µM
- GI50 (SNB-75): 12.5 µM
- CC50 (SNB-75): > 100 µM
- TGI (Colo 205): > 100 µM
- GI50 (Colo 205): 0.35 µM
- CC50 (Colo 205): > 100 µM
- GI50 (MDA-MB-435; Homo sapiens, MDA-MB-435, 48 h): 1.25 µM
- CC50 (MDA-MB-435; Homo sapiens, MDA-MB-435, 48 h, read-out: LC50): 29.3 µM
- TGI (MDA-MB-435; MDA-MB-435 (Breast Cancer), 48 h, SRB): 4.12 µM
- TGI (HOP-92): 18.3 µM
- GI50 (HOP-92): 4.81 µM
- CC50 (HOP-92): 50.7 µM
- GI50 (SF-539): < 0.01 µM
- CC50 (SF-539): 25.8 µM
- TGI (SF-539): 0.267 µM
